Results published in patent US8221733B2, “Virucidal disinfectant” (priority 2002, dated 2012).
Read-outs that look alike come from different tables or passages of the source.

System: poliovirus type 1 (Mahoney strain)
Format: cell-based
Conditions: 0.7% strength formaldehyde

**Q.** With `C=O` [formaldehyde] as the molecule, how does the virus concentration (exposure time 5 min) read?
**A.** The virus concentration was 1.05e+06 mL⁻¹.

**Q.** And the virus concentration (exposure time 15 min)?
**A.** Its virus concentration is 1000 mL⁻¹.

**Q.** And the virus concentration (exposure time 60 min)?
**A.** Its virus concentration is no more than 500 mL⁻¹.
